Assay results published in ChEMBL document CHEMBL6121069, “A Medicinal Chemistry Perspective on Protein Tyrosine Phosphatase Nonreceptor Type 2 in Tumor Immunology” (J Med Chem, 2025).
*1 amine or outer side, *2 acyl side, *3 side chain or, on linkers, in order; H or OH if unused. Where a SMILES comes first, the peptide text is derived from it. [ ]: non-standard residue; d: D form. The star is where a group is joined. NHCH2(1,3-C6H4)CH2CO = O=C(Cc1cccc(CN[*:1])c1)[*:2]; F2Pmp = N[C@@H](Cc1ccc(C(F)(F)P(=O)(O)O)cc1)C(=O)O; Phenylacetyl(4-OH,3-OMe) = COc1cc(CC(=O)*)ccc1O; Benzoyl(3-Br,4-Me) = Cc1ccc(C(=O)*)cc1Br; X1 = Cc1ncsc1-c1ccc([C@H](C)N*)cc1; Hyp = O=C(O)[C@@H]1C[C@@H](O)CN1; Tle = CC(C)(C)[C@H](N)C(=O)O

Tests used:
[1] = target: T1, Tyrosine-protein phosphatase non-receptor type 1 (Homo sapiens, UniProt P18031)
T1 sequence (P18031 whole entry): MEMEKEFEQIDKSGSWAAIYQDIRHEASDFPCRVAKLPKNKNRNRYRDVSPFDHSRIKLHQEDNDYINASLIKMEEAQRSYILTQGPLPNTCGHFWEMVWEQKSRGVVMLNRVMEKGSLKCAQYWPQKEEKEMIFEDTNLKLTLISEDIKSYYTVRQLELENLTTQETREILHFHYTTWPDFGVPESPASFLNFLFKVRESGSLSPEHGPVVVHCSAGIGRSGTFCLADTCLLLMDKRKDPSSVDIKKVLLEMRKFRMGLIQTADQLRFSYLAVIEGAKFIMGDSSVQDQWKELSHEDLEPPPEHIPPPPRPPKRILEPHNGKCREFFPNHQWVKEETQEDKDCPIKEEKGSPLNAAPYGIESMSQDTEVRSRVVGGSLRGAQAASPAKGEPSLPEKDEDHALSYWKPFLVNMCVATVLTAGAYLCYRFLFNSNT
Description: Inhibition of PTP1B (unknown origin)

[2] = system: B16-F10; assay: cells; conditions: Mus musculus
Description: Antiproliferative activity against mouse B16-F10 cells

[3] = target: T2, Tyrosine-protein phosphatase non-receptor type 2 (Homo sapiens, UniProt P17706)
T2 sequence (P17706 whole entry): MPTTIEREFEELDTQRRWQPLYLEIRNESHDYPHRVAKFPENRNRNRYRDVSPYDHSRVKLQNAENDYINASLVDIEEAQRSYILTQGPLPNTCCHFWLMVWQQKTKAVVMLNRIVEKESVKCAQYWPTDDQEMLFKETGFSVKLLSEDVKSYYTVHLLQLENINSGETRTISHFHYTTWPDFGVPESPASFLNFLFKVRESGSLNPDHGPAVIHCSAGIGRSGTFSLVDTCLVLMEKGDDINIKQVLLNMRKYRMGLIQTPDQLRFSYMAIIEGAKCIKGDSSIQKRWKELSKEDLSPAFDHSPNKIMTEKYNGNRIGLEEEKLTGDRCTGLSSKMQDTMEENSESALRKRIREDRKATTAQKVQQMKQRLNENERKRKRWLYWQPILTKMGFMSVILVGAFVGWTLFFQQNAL
Description: Binding affinity to PTPN2 (unknown origin) assessed as inhibition constant

[4] = target: T2, Tyrosine-protein phosphatase non-receptor type 2; remark: listed apart in the source
Description: Inhibition of PTPN2 (unknown origin)

[5] = system: B16-F10; assay: cells; conditions: Mus musculus; remark: listed apart in the source
Description: Antiproliferative activity against mouse B16-F10 cells assessed as inhibition of cell growth

[6] = target: Protein cereblon/Tyrosine-protein phosphatase non-receptor type 2 (Homo sapiens, UniProt P17706+Q96SW2); conditions: hek293t
Protein cereblon/Tyrosine-protein phosphatase non-receptor type 2, sequence (Q96SW2 whole entry, one chain of several): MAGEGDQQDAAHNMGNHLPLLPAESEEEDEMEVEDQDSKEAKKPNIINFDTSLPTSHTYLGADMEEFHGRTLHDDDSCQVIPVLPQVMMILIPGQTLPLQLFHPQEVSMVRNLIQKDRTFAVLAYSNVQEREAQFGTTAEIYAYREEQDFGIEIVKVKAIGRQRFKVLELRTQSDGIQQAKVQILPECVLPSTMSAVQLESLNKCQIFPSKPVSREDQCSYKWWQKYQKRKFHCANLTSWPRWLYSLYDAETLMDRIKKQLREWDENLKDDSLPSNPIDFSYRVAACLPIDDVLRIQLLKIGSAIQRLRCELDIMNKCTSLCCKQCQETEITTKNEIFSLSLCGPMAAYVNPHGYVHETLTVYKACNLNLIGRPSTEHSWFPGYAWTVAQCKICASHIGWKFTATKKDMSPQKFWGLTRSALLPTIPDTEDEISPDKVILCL
Description: PROTAC activity at PTPN2/CRBN in HEK293T cells assessed as protein degradation measured for 48 hrs by Western blot analysis

SMILES	IC50 [2]	IC50 [4]	other results
O=P(O)(O)C(F)(F)c1ccc(CC(Cc2ccc(-c3ccccc3)cc2)(c2ccccc2)n2nnc3ccccc32)cc1 (centres undefined)	–	–	IC50 [1]: 40 nM
CC1Cc2c(cc(O)c(N3CC(=O)NS3(=O)=O)c2F)CCN1 (centres undefined)	270 nM	–	–
O=C1CN(c2c(O)cc3c(c2F)CCNCC3)S(=O)(=O)N1	350 nM	–	–
CC1CCN=C(Nc2cc(O)c(N3CC(=O)NS3(=O)=O)c(F)c2)N1 (centres undefined)	5000 nM	–	Ki [3]: 5 nM
O=C1CN(c2c(O)cc(NC(=O)NC3CCCCC3)cc2F)S(=O)(=O)N1	< 5000 nM	–	–
CC(C)CCN[C@@H]1C[C@H]2C[C@@H]1c1c2cc(O)c(N2CC(=O)NS2(=O)=O)c1F	7820 nM	–	–
O=C1SN(CCOc2ccc([N+](=O)[O-])cc2)CN1Cc1ccccc1	–	1510 nM	–
O=C1CN(c2c(O)cc(CC3CCCCNC3)cc2F)S(=O)(=O)N1 (centres undefined)	–	–	IC50 [5]: > 100000 nM
CCN1CN(Cc2ccc(Br)cc2)C(=O)S1	–	520 nM	–
CC(C)CCn1cc(-c2ccc(O)c(N3CC(=O)NS3(=O)=O)c2F)cn1	–	< 1000 nM	–
COc1ccc2cc(O)c(N3CC(=O)NS3(=O)=O)c(F)c2n1	–	< 1000 nM	–
Cn1c(=O)n(C2CCC(=O)NC2=O)c2cccc(C3CCN(C(=O)c4ccc5c(F)c(N6CC(=O)NS6(=O)=O)c(O)cc5c4)CC3)c21 (centres undefined)	–	–	DC50 [6]: 10 nM
Cc1nn(CC(=O)Nc2ccc3c(F)c(N4CC(=O)NS4(=O)=O)c(O)cc3c2)c(C)c1-c1ccc2c(c1)n(C)c(=O)n2C1CCC(=O)NC1=O (centres undefined)	–	–	DC50 [6]: < 50 nM
CC(C)CCCc1cc2c(F)c(N3CC(=O)NS3(=O)=O)c(O)cc2n(C)c1=O	–	< 1000 nM	–
O=C1CN(c2c(O)cc3c(c2F)C[C@H](NCCC2CCC2)CC3)S(=O)(=O)N1	< 1000 nM	–	–
Cc1ccnc(Nc2cc(O)c(N3CC(=O)NS3(=O)=O)c(F)c2)n1	≥ 100000 nM	–	Ki [3]: ≥ 100 nM
Cc1ccc(NCc2cc(O)c(N3CC(=O)NS3(=O)=O)c(F)c2)nn1	630 nM	–	–
CC(C)CCN1CCC(Cc2cc(O)c(N3CC(=O)NS3(=O)=O)c(F)c2)C1 (centres undefined)	–	–	IC50 [5]: 8430 nM
CCN[C@@H]1CCc2cc(O)c(N3CC(=O)NS3(=O)=O)c(F)c2CC1	54000 nM	–	–
O=C1CN(c2c(O)cc3c(c2F)CNCCC3)S(=O)(=O)N1	–	1910 nM	–
CC(C)CCN[C@@H]1CNc2cc(O)c(N3CC(=O)NS3(=O)=O)c(F)c2C1	1450 nM	–	–
O=C1SN(CCN2CCN(Cc3ccc4c(c3)OCO4)CC2)CN1Cc1ccccc1	–	5290 nM	–
COc1ccc(-c2ccc[nH]2)cc1N1CC(=O)NS1(=O)=O	–	–	IC50 [1]: 80 nM

SMILES	IC50 [2]	IC50 [4]	other results
Cc1ccnc(NCc2cc(F)c(N3CC(=O)NS3(=O)=O)c3[nH]ncc23)c1	350 nM	–	–
CC(C)CCc1ccc2ccc(N3CC(=O)NS3(=O)=O)cc2n1	–	> 10000 nM	–
CC(C)CCn1cnc(-c2ccc(O)c(N3CC(=O)NS3(=O)=O)c2F)c1	–	< 1000 nM	–
CC(C)CCc1ccc2cc(O)c(N3CC(=O)NS3(=O)=O)cc2n1	–	< 1000 nM	–
O=C(CCOCCn1cc(C2(Nc3cccc4c3C(=O)N(C3CCC(=O)NC3=O)C4=O)CC2)nn1)NCCOc1ccc2cc(O)c(N3CC(=O)NS3(=O)=O)c(F)c2c1 (centres undefined)	–	–	DC50 [6]: > 1000 nM
O=C1CN(c2c(O)cc(CC3CCCNC3)cc2F)S(=O)(=O)N1 (centres undefined)	–	–	IC50 [5]: 25800 nM
CCN1CCc2cc(O)c(N3CC(=O)NS3(=O)=O)c(F)c2CC1C (centres undefined)	–	212 nM	–
Cn1c(=O)n(C2CCC(=O)NC2=O)c2cccc(C3CCN(CCOCCC(=O)NCCOc4ccc5cc(O)c(N6CC(=O)NS6(=O)=O)c(F)c5c4)CC3)c21 (centres undefined)	–	–	DC50 [6]: > 1000 nM
O=C1CN(c2c(O)cc3c(c2F)C[C@H](NCCC2CCCC2)CC3)S(=O)(=O)N1	< 50 nM	–	–
O=C1CN(c2c(O)cc(NC3=NCCCN3)cc2F)S(=O)(=O)N1	< 5000 nM	–	Ki [3]: 5 nM
O=C(O)CN1CCN(CCN2CN(Cc3ccccc3)C(=O)S2)CC1	–	8770 nM	–
CC(C)CCn1cnc2cc(O)c(N3CC(=O)NS3(=O)=O)c(F)c2c1=O	–	> 10000 nM	–
CC(C)CCn1ccc(-c2ccc(O)c(N3CC(=O)NS3(=O)=O)c2F)n1	–	< 1000 nM	–
O=C1CN(c2c(O)cc(CC3CCN(CC4CC4)C3)cc2F)S(=O)(=O)N1 (centres undefined)	–	–	IC50 [5]: 17400 nM
CC(C)CCn1ccc(-c2ccc(O)c(N3CC(=O)NS3(=O)=O)c2F)c1	–	< 1000 nM	–
CCN1CN(Cc2ccc(Cl)cc2)C(=O)S1	–	330 nM	–
O=C1CN(c2c(O)cc(CC3CCCN(CC4CC4)C3)cc2F)S(=O)(=O)N1 (centres undefined)	–	–	IC50 [5]: > 46400 nM
CC(C)N1CCN(CCN2CN(Cc3ccccc3)C(=O)S2)CC1	–	7100 nM	–
CCN1CN(Cc2ccc(I)cc2)C(=O)S1	–	370 nM	–
COc1ccnc(NCc2cc(O)c(N3CC(=O)NS3(=O)=O)c(F)c2)c1	140 nM	–	–
CC(C)CCNC(=O)Nc1cc(O)c(N2CC(=O)NS2(=O)=O)c(F)c1	< 5000 nM	5 nM	–
COc1cc(C)nc(NCc2cc(O)c(N3CC(=O)NS3(=O)=O)c(F)c2)c1	50 nM	–	–
CC(C)Cc1cnc(Nc2cc(O)c(N3CC(=O)NS3(=O)=O)c(F)c2)nc1O	5000 nM	–	Ki [3]: < 1 nM

SMILES	IC50 [2]	IC50 [4]	other results
Cc1cnc(Nc2cc(O)c(N3CC(=O)NS3(=O)=O)c(F)c2)nc1O	50000 nM	–	Ki [3]: < 1 nM
CC1(C)CCC(NCc2cc(O)c(N3CC(=O)NS3(=O)=O)c(F)c2)CC1	81000 nM	–	–
CC(C)CCN1CCCC(Cc2cc(O)c(N3CC(=O)NS3(=O)=O)c(F)c2)C1 (centres undefined)	–	–	IC50 [5]: > 100000 nM
CC(C)CCc1ccc2cc(O)c(N3CC(=O)NS3(=O)=O)c(F)c2n1	–	< 1000 nM	–
O=C1CN(c2c(O)cc(CC3CCNC3)cc2F)S(=O)(=O)N1 (centres undefined)	–	–	IC50 [5]: 7430 nM
O=C1CN(c2c(O)cc3c(c2F)C[C@H](NCCC2CC2)CC3)S(=O)(=O)N1	220 nM	–	–
CCN1CN(Cc2ccc(F)cc2)C(=O)S1	–	280 nM	–
COc1cccc(NCc2cc(O)c(N3CC(=O)NS3(=O)=O)c(F)c2)n1	8660 nM	–	–
COc1cc(C)nc(NCc2cc(F)c(N3CC(=O)NS3(=O)=O)c3[nH]ncc23)c1	20 nM	–	–
N[C@@H]1CCc2cc(O)c(N3CC(=O)NS3(=O)=O)c(F)c2CC1	1630 nM	5.67 nM	–
O=C1CN(c2c(O)cc3c(c2F)C[C@H](NCCC(F)F)CC3)S(=O)(=O)N1	1500 nM	1 nM	–
CC(C)CCn1ccc2cc(O)c(N3CC(=O)NS3(=O)=O)c(F)c2c1=O	–	> 1000 nM	–
O=C1CN(c2c(O)cc3c(c2F)C[C@H](NCCCC(F)(F)F)CC3)S(=O)(=O)N1	< 50 nM	1 nM	–
CC1(C)CCC(NCc2ccc(O)c(N3CC(=O)NS3(=O)=O)c2F)CC1	–	10000 nM	–
CC(C)CCOc1ccc2cc(O)c(N3CC(=O)NS3(=O)=O)c(F)c2n1	–	< 1000 nM	–
Cn1c(=O)n(C2CCC(=O)NC2=O)c2ccc(C3CCN(C(=O)CNc4ccc5c(F)c(N6CC(=O)NS6(=O)=O)c(O)cc5c4)CC3F)cc21 (centres undefined)	–	–	DC50 [6]: < 10 nM
CC(C)CCn1cc(-c2ccc(O)c(N3CC(=O)NS3(=O)=O)c2F)nn1	–	< 1000 nM	–
Cc1cc(O)nc(Nc2cc(O)c(N3CC(=O)NS3(=O)=O)c(F)c2)n1	< 5000 nM	–	Ki [3]: 1 nM
CN(Cc1cc(O)c(N2CC(=O)NS2(=O)=O)c(F)c1)C1CCC(C)(C)CC1	14900 nM	50 nM	–
O=C1CN(c2c(O)cc(NC(=O)N[C@H](CO)c3ccccc3)cc2F)S(=O)(=O)N1 (racemic)	< 5000 nM	5 nM	–
COc1cc(CC(=O)N[C@@H](Cc2ccccc2)C(=O)N[C@@H](Cc2ccc(C(F)(F)P(=O)(O)O)cc2)C(=O)N[C@@H](CCCCNC(=O)c2ccc(C)c(Br)c2)C(=O)NCc2cccc(CC(=O)N[C@H](C(=O)N3C[C@H](O)C[C@H]3C(=O)N[C@@H](C)c3ccc(-c4scnc4C)cc3)C(C)(C)C)c2)ccc1O ({Phenylacetyl(4-OH,3-OMe)}-F[F2Pmp]K(Benzoyl(3-Br,4-Me))[NHCH2(1,3-C6H4)CH2CO][Tle][Hyp]-X1)	–	–	DC50 [6]: 4.8 nM
